Assays:
[1] = system: interferon-stimulated responsive elements (ISRE); assay: Activation of ISRE promoter elements by conditioned media from PBMC (HEK-ISREluc); assay type: cell-based, human; parameters: unit not given here; conditions: compound applied to PBMCs, supernatant transferred to HEK-ISREluc cells, 24 hours
Protocol: The potential of compounds to induce IFN-I was also evaluated by measuring the activation of interferon-stimulated responsive elements (ISRE) by conditioned media from PBMC. The ISRE element of sequence GAAACTGAAACT is highly responsive to the STAT1-STAT2-IRF9 transcription factor, activated upon binding of IFN-I to their receptor IFNAR (Clontech, PT3372-5W). The plasmid pISRE-Luc from Clontech (ref. 631913) contains 5 copies of this ISRE element, followed by the firefly luciferase ORF. A HEK293 cell line stably transfected with pISRE-Luc (HEK-ISREluc) was established to profile of the conditioned PBMC cell culture media.
Briefly, PBMCs were prepared from buffy coats of at least two donors using a standard Ficoll centrifugation protocol. Isolated PBMCs were resuspended in RPMI medium supplemented with 10% human AB serum and 2×10^5 cells/well were dispensed into 384-well plates containing compounds (70 μL total volume). After overnight incubation, 10 μL of supernatant was transferred to 384-well plates containing 5×10^3 HEK-ISREluc cells/well in 30 μL (plated the day before). Following 24 hours of incubation, activation of the ISRE elements was measured by assaying luciferase activity using 40 μL/well Steady Lite Plus substrate (Perkin Elmer) and measured with ViewLux ultraHTS microplate imager (Perkin Elmer). The stimulating activity of each compound on the HEK-ISREluc cells was reported as LEC value, defined as the compound concentration applied to the PBMCs resulting in a luciferase activity at least two fold above the standard deviation of the assay. The LEC in turn indicates the degree of ISRE activation on transfer of a defined amount of PBMC culture medium. Recombinant interferon α-2a (Roferon-A) was used as a standard control compound.

[2] = target: T1, human TLR8 (Homo sapiens, UniProt Q9NR97); assay: TLR8 wild type NFκB-luc cellular reporter assay; assay type: cell-based; parameters: unit not given here; conditions: HEK293 NFκB-luc reporter, 6 hours incubation; second part of table
T1 construct: expressed in transfected cells; host or cells: HEK293
T1 sequence (Q9NR97 27-1041): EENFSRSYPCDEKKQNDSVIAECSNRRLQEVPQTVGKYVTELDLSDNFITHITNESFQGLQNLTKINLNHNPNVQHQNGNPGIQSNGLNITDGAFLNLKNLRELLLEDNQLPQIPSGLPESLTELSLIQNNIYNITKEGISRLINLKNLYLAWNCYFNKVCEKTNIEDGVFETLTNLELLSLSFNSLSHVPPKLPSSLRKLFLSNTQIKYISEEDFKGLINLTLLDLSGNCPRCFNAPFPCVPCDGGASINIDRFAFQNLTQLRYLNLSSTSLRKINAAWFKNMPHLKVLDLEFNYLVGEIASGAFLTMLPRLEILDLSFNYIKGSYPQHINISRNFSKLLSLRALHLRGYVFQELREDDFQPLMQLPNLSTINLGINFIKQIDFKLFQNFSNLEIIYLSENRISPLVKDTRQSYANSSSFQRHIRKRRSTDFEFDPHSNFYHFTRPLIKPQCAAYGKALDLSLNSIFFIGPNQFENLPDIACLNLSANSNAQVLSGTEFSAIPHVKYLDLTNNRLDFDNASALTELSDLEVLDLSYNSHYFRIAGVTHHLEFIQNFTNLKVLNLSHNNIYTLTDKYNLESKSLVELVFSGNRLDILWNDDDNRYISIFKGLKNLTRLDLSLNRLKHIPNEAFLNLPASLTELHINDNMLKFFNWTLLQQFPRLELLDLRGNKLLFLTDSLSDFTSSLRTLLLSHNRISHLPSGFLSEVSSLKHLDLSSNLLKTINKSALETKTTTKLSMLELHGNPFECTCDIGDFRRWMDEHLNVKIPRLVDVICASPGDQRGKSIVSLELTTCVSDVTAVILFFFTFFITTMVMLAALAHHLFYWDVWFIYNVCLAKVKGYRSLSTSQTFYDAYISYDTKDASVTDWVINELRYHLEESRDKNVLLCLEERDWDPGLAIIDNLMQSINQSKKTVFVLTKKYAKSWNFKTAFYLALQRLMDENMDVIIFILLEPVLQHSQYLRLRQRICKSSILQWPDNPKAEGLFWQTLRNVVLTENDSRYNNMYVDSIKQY
Outline: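 HEK293 cells transiently transfected with wild-type or second-LRR-deletion (dIRR2) TLR7/TLR8 plasmid plus NFκB-luc, 24 h; compound added for 6 h at 37 °C. Luciferase read-out, quadruplicate dose responses. LEC = lowest concentration giving effect at least two-fold above assay SD.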

Row | SMILES | TLR8-wt (LEC) [2] | HEK-ISRE luc (LEC) [1]
1 | CCCC[C@@H](CO)Nc1nc(N)nc2cccc(F)c12 [Compound 62] | 0.01 | 0.03
2 | CCC[C@@H](CCO)Nc1nc(N)nc2c(F)cccc12 [Compound 63] | 0.15 | 0.04
3 | CCC[C@@H](CCO)Nc1nc(N)nc2cc(F)ccc12 [Compound 64] | 0.03 | 0.04
4 | CCC[C@@H](CCO)Nc1nc(N)nc2ccc(F)cc12 [Compound 65] | 0.44 | 0.56
5 | CCC[C@@H](CCO)Nc1nc(N)nc2cccc(F)c12 [Compound 66] | 0.02 | 0.06
6 | CC[C@H](C)[C@@H](CO)Nc1nc(N)nc2c(F)cccc12 [Compound 67] | 0.11 | 0.21
7 | CC[C@H](C)[C@@H](CO)Nc1nc(N)nc2ccc(F)cc12 [Compound 68] | 0.33 | 0.64
8 | CCC[C@@H](CO)Nc1nc(N)nc2c(Cl)cccc12 [Compound 69] | 0.38 | 0.73
9 | CCC[C@@H](CO)Nc1nc(N)nc2cc(Cl)ccc12 [Compound 70] | 0.01 | 0.01
10 | CCC[C@@H](CO)Nc1nc(N)nc2cccc(Cl)c12 [Compound 71] | 0.01 | 0.03
11 | CCC[C@@H](CO)Nc1nc(N)nc2cc(F)c(F)cc12 [Compound 72] | 0.02 | 0.05
12 | CCCC[C@@H](CCO)Nc1nc(N)nc2cc(C)ccc12 [Compound 73] | 0.06 | 0.02
13 | CCCC[C@@H](CCO)Nc1nc(N)nc2ccc(C)cc12 [Compound 74] | 0.25 | 0.14
14 | CCCC[C@@H](CCO)Nc1nc(N)nc2cccc(C)c12 [Compound 75] | 0.06 | 0.02
15 | CCCC[C@@H](CO)Nc1nc(N)nc2cc(OC)ccc12 [Compound 76] | 0.04 | 0.09

The next lines start with results.

Row | TLR8-wt (LEC) [2] | SMILES | HEK-ISRE luc (LEC) [1]
16 | 0.62 | CCCC[C@@H](CO)Nc1nc(N)nc2ccc(OC)cc12 [Compound 77] | 1.93
17 | 0.13 | CCC[C@@H](CCO)Nc1nc(N)nc2cc(OC)ccc12 [Compound 78] | 0.04
18 | 2.97 | CCC[C@@H](CCO)Nc1nc(N)nc2ccc(OC)cc12 [Compound 79] | 2.07
19 | 4.10 | CC[C@H](C)[C@@H](CO)Nc1nc(N)nc2ccc(OC)cc12 [Compound 80] | >24
20 | 0.16 | CCCC[C@@H](CCO)Nc1nc(N)nc2c(F)cccc12 [Compound 81] | 0.05
21 | 0.03 | CCCC[C@@H](CCO)Nc1nc(N)nc2cc(F)ccc12 [Compound 82] | 0.04
22 | 0.42 | CCCC[C@@H](CCO)Nc1nc(N)nc2ccc(F)cc12 [Compound 83] | 0.37
23 | 0.10 | CCCC[C@@H](CCO)Nc1nc(N)nc2cccc(F)c12 [Compound 84] | 0.09
24 | 0.10 | CCCCNc1nc(N)nc2ccc(Br)cc12 [Compound 85] | 0.21
25 | 0.22 | CCC[C@@H](CO)Nc1nc(N)nc2cc(C(=O)OC)ccc12 [Compound 86] | 0.28
26 | 0.16 | CCCC[C@@H](CCO)Nc1nc(N)nc2cc(OC)ccc12 [Compound 87] | 0.04
27 | 2.81 | CCCC[C@@H](CCO)Nc1nc(N)nc2ccc(OC)cc12 [Compound 88] | 0.88
28 | 2.22 | CCCCNc1nc(N)nc2cc(OC)c(OCc3ccccc3)cc12 [Compound 89] | >24
